{"source": "patent US7728106B2", "about": "“HIV-1 glycopeptides and derivatives; preparation and applications thereof” (University of Maryland Biotechnology Institute, priority 2005, dated 2010)", "key": {"pronase (Actinase E)": {"system": "pronase (Actinase E)", "assay": "Stability toward pronase digestion", "assay_type": "in vitro ADME", "details": "40 μM peptide, phosphate buffer pH 7.4, 125 ng pronase, 40 minutes, 30° C.; HPLC; FIG. 7B", "description": "(§1) FIG. 7A is a graph for digestion with furin, under reaction conditions involving a solution of each peptide (40 μM) in a phosphate buffer (pH 7.0, total 30 μl) incubated with 10 units of furin (Sigma; a unit being defined by the amount of furin that hydrolyzes one pmol substrate in 1 minute under the optimal condition) for 16 hours at 30° C., and the remaining starting peptide was quantified by HPLC and confirmed by ESI-MS determination. FIG. 7B is a graph for digestion with pronase under reaction conditions involving a solution of each peptide (40 μM) in a phosphate buffer (pH 7.4, total 100 μl) incubated with 125 ng of pronase (Sigma) for 40 minutes at 30° C., and the remaining starting peptide was quantified by HPLC and confirmed by ESI-MS determination.\n(§2) Next, the stability of the V3 glycopeptides against pronase digestion was tested. The pronase (Actinase E, Sigma) is a mixture of at least three proteolytic activities."}, "furin": {"target": "T1, furin (Homo sapiens, UniProt P09958)", "T1 construct": "purchased Sigma", "T1 sequence (P09958 108-794, species assumed)": "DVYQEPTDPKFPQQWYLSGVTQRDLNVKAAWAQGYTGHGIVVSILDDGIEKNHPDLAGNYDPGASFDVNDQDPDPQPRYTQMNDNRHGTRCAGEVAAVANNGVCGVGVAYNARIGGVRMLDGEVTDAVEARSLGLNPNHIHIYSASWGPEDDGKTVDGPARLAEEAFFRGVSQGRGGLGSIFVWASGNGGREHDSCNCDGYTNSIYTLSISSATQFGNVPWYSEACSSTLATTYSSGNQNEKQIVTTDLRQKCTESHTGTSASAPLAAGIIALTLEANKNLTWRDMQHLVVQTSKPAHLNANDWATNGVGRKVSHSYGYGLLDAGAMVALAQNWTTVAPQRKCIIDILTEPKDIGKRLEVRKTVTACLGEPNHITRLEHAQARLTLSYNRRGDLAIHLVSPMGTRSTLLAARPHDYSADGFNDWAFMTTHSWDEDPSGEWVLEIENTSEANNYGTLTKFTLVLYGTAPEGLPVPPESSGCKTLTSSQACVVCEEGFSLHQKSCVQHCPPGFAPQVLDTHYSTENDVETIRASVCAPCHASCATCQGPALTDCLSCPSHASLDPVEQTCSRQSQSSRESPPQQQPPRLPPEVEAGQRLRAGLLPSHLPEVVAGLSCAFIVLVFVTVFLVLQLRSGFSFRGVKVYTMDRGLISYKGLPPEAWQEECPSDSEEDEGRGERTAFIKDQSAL", "assay": "Stability toward furin digestion", "assay_type": "in vitro ADME", "details": "40 μM peptide, phosphate buffer pH 7.0, 10 units furin, 16 hours, 30° C.; HPLC; FIG. 7A", "description": "To test this, a quick experiment was performed on the resistance of the synthetic V3 glycopeptides against different proteases. The protease furin was reported to be able to cleave the V3 domain of gp120 at the sequence 302-312 [134-136]. Therefore, the stability of the synthetic glycopeptides toward furin digestion was initially examined. The enzyme was obtained from Sigma and the digestion was monitored by HPLC and ESI-MS analysis.\nas §1, §2"}}, "data": [{"smiles": "CC[C@H](C)[C@@H]1NC(=O)[C@H](CCCCN)NC(=O)CNC(=O)[C@H]([C@@H](C)CC)NC(=O)[C@H]([C@@H](C)O)NC(=O)[C@H](C(C)C)NC(=O)[C@H](Cc2ccccc2)NC(=O)[C@H](C)NC(=O)[C@H](CCCNC(=N)N)NC(=O)CNC(=O)[C@@H]2CCCN2C(=O)CNC(=O)[C@H](CCCNC(=N)N)NC(=O)[C@H](CCC(N)=O)NC(=O)[C@H]([C@@H](C)CC)NC(=O)[C@H](CCCNC(=N)N)NC(=O)[C@H]([C@@H](C)CC)NC(=O)[C@H](CCCNC(=N)N)NC(=O)[C@H](CCCCN)NC(=O)[C@H](CCCNC(=N)N)NC(=O)[C@H]([C@@H](C)O)NC(=O)[C@H](CC(N)=O)NC(=O)[C@H](CC(N)=O)NC(=O)[C@H](CC(N)=O)NC(=O)[C@@H]2CCCN2C(=O)[C@H](CCCNC(=N)N)NC(=O)[C@H]([C@@H](C)O)NC(=O)[C@@H](NC(=O)[C@H](CC(=O)N[C@@H]2O[C@H](CO)[C@@H](O[C@@H]3O[C@H](CO)[C@@H](O[C@@H]4O[C@H](CO[C@H]5O[C@H](CO)[C@@H](O)[C@H](O)[C@@H]5O)[C@@H](O)[C@H](O[C@H]5O[C@H](CO)[C@@H](O)[C@H](O)[C@@H]5O)[C@@H]4O)[C@H](O)[C@H]3NC(C)=O)[C@H](O)[C@H]2NC(C)=O)NC(=O)[C@@H](NC(=O)[C@H](CCC(=O)O)NC(=O)[C@@H](NC(=O)[C@H](CO)NC(=O)[C@@H](N)[C@@H](C)O)C(C)C)[C@@H](C)CC)CSSC[C@@H](C(=O)N[C@@H](CC(=O)N[C@@H]2O[C@H](CO)[C@@H](O[C@@H]3O[C@H](CO)[C@@H](O[C@@H]4O[C@H](CO[C@H]5O[C@H](CO)[C@@H](O)[C@H](O)[C@@H]5O)[C@@H](O)[C@H](O[C@H]5O[C@H](CO)[C@@H](O)[C@H](O)[C@@H]5O)[C@@H]4O)[C@H](O)[C@H]3NC(C)=O)[C@H](O)[C@H]2NC(C)=O)C(=O)N[C@H](C(=O)N[C@@H](CO)C(=O)N[C@@H](CCCNC(=N)N)C(=O)N[C@@H](C)C(N)=O)[C@@H](C)CC)NC(=O)[C@H](Cc2c[nH]cn2)NC(=O)[C@H](C)NC(=O)[C@H](CCC(N)=O)NC(=O)[C@H](CCCNC(=N)N)NC(=O)[C@H](CCSC)NC(=O)[C@H](CC(N)=O)NC(=O)CNC1=O", "note": "[HB-V3-(G2M3)2]", "values": [{"measurement": "stability toward pronase digestion (remaining starting peptide)", "setting": "pronase (Actinase E)", "result": "most stable"}, {"measurement": "stability toward furin digestion (remaining starting peptide)", "setting": "furin", "result": "most stable"}]}]}
